Measured values from PubChem BioAssay (NCI).
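Results reflect a 48-hour exposure of cells in 96-well plates to compound at five concentrations. TGI marks complete inhibition of growth.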

Assays:
Test in all cases: NCI tumour cell line growth inhibition, 48 h
[1] = system: BT-549 breast
[2] = system: UACC-257 melanoma
[3] = system: DMS 273 small cell lung
[4] = system: LXFL 529 NSCLC
[5] = system: M19-MEL melanoma
[6] = system: DMS 114 small cell lung
[7] = system: RXF-631 renal
[8] = system: XF 498 CNS
[9] = system: SN12K1 renal
[10] = system: P388 leukemia
[11] = system: P388/ADR leukemia

SMILES | TGI [1] | TGI [2] | TGI [3] | TGI [4] | TGI [5] | TGI [6] | other results
Cc1cc(C)c(S(=O)(=O)N(CCCN)OCCCN)c(C)c1 | > 100 µM | > 100 µM |  |  |  |  | 
CCN1C(=O)N2C(OC)c3ccccc3C(Br)C2(OC)C1=O (stereo not given) |  |  | > 100 µM | > 100 µM | > 100 µM | > 100 µM | TGI [7]: > 100 µM
CC1CCN(c2cc(-c3cc4ccccc4o3)oc(=O)c2C#N)CC1 |  | > 100 µM | > 100 µM | > 100 µM |  | > 100 µM | TGI [8]: > 100 µM
CCOC(=O)[C@H]1Nc2c(cccc2[N+](=O)[O-])C2c3ccccc3CC21 (stereo not given in full) |  | 98.4 µM | > 100 µM | > 100 µM | > 100 µM | > 100 µM | TGI [8]: > 100 µM; TGI [7]: > 100 µM
O=C(/C=C\c1ccc(/C=C/C(=O)Nc2cccc(C3=NCCCN3)c2)cc1)Nc1cccc(C2=NCCCN2)c1 |  | > 100 µM | > 100 µM |  | > 100 µM |  | TGI [9]: > 100 µM; TGI [10]: > 100 µM; TGI [11]: > 100 µM
CO/C(=N\N=C(/c1ccccc1)C(F)(F)F)c1ccncc1 | > 100 µM |  |  |  |  |  | 
Fc1ccc(C(OCCN2CC3CC2CN3)c2ccc(F)cc2)cc1 (stereo not given) | > 100 µM | 36.6 µM |  |  |  |  | 
Clc1cccc(C2SCc3nc4ccccc4n32)c1 (stereo not given) |  |  |  | > 100 µM | 58.4 µM |  | 
